Where a name gives a salt, the structure may show the parent alone.
Legend:
M3 muscarinic receptor [1] = target: T1, M3 muscarinic receptor (Rattus norvegicus, UniProt P08483); test: biochemical; settings: Receptor Binding Assay M3 pKi
M2 muscarinic receptor = target: T2, M2 muscarinic receptor (Rattus norvegicus, UniProt P10980); test: biochemical; type: binding; settings: Receptor Binding Assay M2 pKi
T2 construct: Submandibular glands and heart were isolated and placed in ice cold homogenising buffer; from tissue; host or cells: rat heart membrane homogenate
T2 sequence (P10980 1-466): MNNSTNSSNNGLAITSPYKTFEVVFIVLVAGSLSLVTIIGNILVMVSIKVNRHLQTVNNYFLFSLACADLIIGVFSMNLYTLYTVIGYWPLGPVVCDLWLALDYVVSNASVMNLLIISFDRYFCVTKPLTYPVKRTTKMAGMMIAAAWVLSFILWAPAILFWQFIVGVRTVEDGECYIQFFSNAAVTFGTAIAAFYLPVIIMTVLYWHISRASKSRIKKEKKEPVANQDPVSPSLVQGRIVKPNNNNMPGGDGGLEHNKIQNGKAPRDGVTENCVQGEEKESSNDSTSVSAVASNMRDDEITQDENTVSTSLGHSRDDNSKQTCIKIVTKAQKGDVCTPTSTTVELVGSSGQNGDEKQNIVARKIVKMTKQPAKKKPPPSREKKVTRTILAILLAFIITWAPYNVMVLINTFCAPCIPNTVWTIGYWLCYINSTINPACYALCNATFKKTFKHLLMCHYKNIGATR

M3 muscarinic receptor [2] = target: T1, M3 muscarinic receptor
bladder pressure = test: In vivo anaesthetized rabbit, carbachol-induced bladder pressure; settings: bladder selectivity expressed as fold of selectivity of oxybutynin in the same model

T1 sequence (P08483 whole entry): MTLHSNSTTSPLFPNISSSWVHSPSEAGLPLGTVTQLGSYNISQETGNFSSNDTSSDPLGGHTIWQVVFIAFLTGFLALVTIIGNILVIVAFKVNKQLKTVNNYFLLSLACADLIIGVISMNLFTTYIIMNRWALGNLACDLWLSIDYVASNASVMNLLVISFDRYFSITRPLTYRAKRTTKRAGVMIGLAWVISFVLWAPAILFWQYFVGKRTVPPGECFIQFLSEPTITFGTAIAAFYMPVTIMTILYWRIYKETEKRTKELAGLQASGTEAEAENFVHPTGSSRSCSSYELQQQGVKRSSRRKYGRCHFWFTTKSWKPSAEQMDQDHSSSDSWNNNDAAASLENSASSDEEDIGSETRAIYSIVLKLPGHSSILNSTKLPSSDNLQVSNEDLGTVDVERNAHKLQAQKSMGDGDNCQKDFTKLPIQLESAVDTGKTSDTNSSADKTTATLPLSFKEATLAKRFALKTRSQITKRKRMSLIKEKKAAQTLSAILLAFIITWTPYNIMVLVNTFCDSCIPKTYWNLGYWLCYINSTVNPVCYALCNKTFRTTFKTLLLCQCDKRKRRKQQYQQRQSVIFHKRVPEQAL

| SMILES | Ki (M3 muscarinic receptor [1]) [nM] | Ki (M2 muscarinic receptor) [nM] | Receptor Binding Assay Selectivity M2/M3 (M3 muscarinic receptor [2]) | Fold of Oxybutynin (bladder pressure) | melting point [°C] |
| --- | --- | --- | --- | --- | --- |
| O=C(NCC1C2CN(Cc3ccccc3)CC12)C(O)(c1ccccc1)C1CCCC1 [Compound No. 34, (1α,5α,6α)-N-[3-benzyl-3-azabicyclo[3.1.0]hexyl-6-(aminomethyl)-yl]-2-hydroxy-2-cyclopentyl-2-phenyl acetamide L-(+)-tartrate salt] | 5.89 | 60.3 | 8 |  |  |
| O=C(NC[C@@H]1[C@H]2CN(Cc3ccccc3)C[C@@H]12)[C@](O)(c1ccccc1)C1CCCC1 [Compound No. 29, (2R)-(+)-(1α,5α,6α)-N-[3-benzyl-3-azabicyclo[3.1.0]hexyl-6-(aminomethyl)-yl]-2-hydroxy-2-cyclopentyl-2-phenyl acetamide] | 1.1 | 12.3 | 11.2 |  |  |
| O=C(NC[C@@H]1[C@H]2CN(Cc3ccccc3)C[C@@H]12)C(O)(c1ccccc1)C1CCC1 (stereo partly drawn) [Compound No. 37, (1α,5α,6α)-N-[3-benzyl-3-azabicyclo[3.1.0]hexyl-6-(aminomethyl)-yl]-2hydroxy-2-cyclobutyl-2-phenylacetamide] | 5.89 | 57.5 | 8 |  |  |
| CC(NC(=O)C(O)(c1ccccc1)C1CCCC1)[C@H]1[C@@H]2CN(Cc3ccccc3)C[C@@H]21 (stereo partly drawn) [Compound No. 25, (1α,5α,6α)-N-[3-benzyl-3-azabicyclo[3.1.0]hexyl-6-(1-aminoethyl)-yl]-2-hydroxy-2-cyclopentyl-2-phenyl acetamide] | 25.1 | 427 | 17 |  |  |
| CC(NC(=O)C(O)(c1ccccc1)C1CCCCC1)[C@H]1[C@@H]2CN(Cc3ccccc3)C[C@@H]21 (stereo partly drawn) [Compound No. 24, (1α,5α,6α)-N-[3-benzyl-3-azabicyclo[3.1.0]hexyl-6-(1-aminoethyl)-yl]-2-hydroxy-2-cyclohexyl-2-phenyl acetamide] | 30.9 | 275 | 8.9 |  |  |
| CC(c1ccccc1)N1CC2C(CNC(=O)C(O)(c3ccccc3)C3CCCCC3)C2C1 (stereo not drawn) [Compound No. 21, (1α,5α,6α)-N-[3-(1-phenylethyl)-3-azabicyclo[3.1.0]hexyl-6-(aminomethyl)-yl]-2-hydroxy-2-cyclohexyl-2-phenyl acetamide] | 15.1 | 257 | 17 |  |  |
| O=C(NCC1C2CN(Cc3ccccc3)CC12)[C@](O)(c1ccccc1)C1CCCC1.O=C(O)C(O)C(O)C(=O)O (stereo partly drawn) [Compound No. 35, (2R)-(+)-(1α,5α,6α)-N-[3-benzyl-3-azabicyclo[3.1.0]hexyl-6-(aminomethyl)-yl]-2-hydroxy-2-cyclopentyl-2-phenylacetamide. L(+)-tartrate salt] |  |  |  | 3.45 |  |
| CC(C)=CCCN1CC2C(CNC(=O)C(O)(c3ccccc3)C3CCCC3)C2C1 (stereo not drawn) [Compound No. 16, (1α,5α,6α)-N-[3-(4-methyl-3-pentenyl)-3-azabicyclo[3.1.0]hexyl-6-(aminomethyl)-yl]-2-hydroxy-2-cyclopentyl-2-phenyl acetamide] | 23.4 | 178 | 7.6 |  |  |
| O=C(NCC1C2CN(Cc3ccccc3)CC12)C(O)(c1ccccc1)C1CCCCC1 (stereo not drawn) [Compound No. 2, (1α,5α,6α)-N-[3-benzyl-3-azabicyclo[3.1.0]hexyl-6-(aminomethyl)-yl]-2-hydroxy-2-cyclohexyl-2-phenyl acetamide] | 5.62 | 141 | 25 |  |  |
| CC(c1ccccc1)N1CC2C(CNC(=O)C(O)(c3ccccc3)C3CCCC3)C2C1 (stereo not drawn) [Compound No. 22, (1α,5α,6α)-N-[3-(1-phenylethyl)-3-azabicyclo[3.1.0]hexyl-6-(aminomethyl)-yl]-2-hydroxy-2-cyclopentyl-2-phenyl acetamide] | 5.89 | 87.1 | 14.8 |  |  |
| O=C(NCC1C2CN(Cc3ccccc3)CC12)[C@@](O)(c1ccccc1)C1CCCC1.O=C(O)C(O)C(O)C(=O)O (stereo partly drawn) [Compound No. 36, (2S)-(−)-(1α,5α,6α)-N-[3-benzyl-3-azabicyclo[3.1.0]hexyl-6(aminomethyl)-yl]-2-hydroxy-2-cyclopentyl-2-phenylacetamide. L(+)-tartrate salt] |  |  |  | 2.17 |  |
| O=C(NCC1C2CN(CCc3ccc4c(c3)CCO4)CC12)C(O)(c1ccccc1)C1CCCC1 (stereo not drawn) [Compound No. 10, (1α,5α,6α)-N-[3-(2-(2,3-dihydrobenzofuran-5-yl)ethyl)-3-azabicyclo[3.1.0]hexyl-6-(aminomethyl)-yl]-2-hydroxy-2-cyclopentyl-2-phenyl acetamide] | 32.4 | 339 | 10.47 |  |  |
| O=C(NC[C@@H]1[C@H]2CN(Cc3ccccc3)C[C@@H]12)C(O)(c1ccccc1)C1CC1 (stereo partly drawn) [Compound No. 38, (1α,5α,6α)-N-[3-benzyl-3-azabicyclo[3.1.0]hexyl-6-(aminomethyl)-yl]-2-hydroxy-2-cyclopropyl-2-phenylacetamide] | 64.6 | 427 | 6.6 |  |  |
| O=C(NC[C@@H]1[C@H]2CN(Cc3ccccc3)C[C@@H]12)[C@@](O)(c1ccccc1)C1CCCC1 [Compound No. 32, (2S)-(−)(1α,5α,6α)-N-[3-benzyl-3-azabicyclo[3.1.0]hexyl-6-(aminomethyl)-yl]-2-hydroxy-2-cyclopentyl-2-phenyl acetamide] | 22.4 | 631 | 28 |  |  |
| O=C(NC[C@@H]1[C@H]2CN(Cc3ccccc3)C[C@@H]12)C(O)(c1ccccc1)c1ccccc1 [Compound No. 1, (1α,5α,6α)-N-[3-benzyl-3-azabicyclo[3.1.0]hexyl-6-(aminomethyl)-yl]-2-hydroxy-2,2-diphenyl acetamide] | 25.1 | 257 | 10 |  |  |
| CC(NC(=O)C(O)(c1ccccc1)c1ccccc1)[C@H]1[C@@H]2CN(Cc3ccccc3)C[C@@H]21 (stereo partly drawn) [Compound No. 23, (1α,5α,6α)-N-[3-benzyl-3-azabicyclo[3.1.0]hexyl-6-(1-aminoethyl)-yl]-2-hydroxy-2,2-diphenyl acetamide] | 158 | 589 | 3.7 |  |  |
| O=C(NCC1C2CN(Cc3ccccc3)CC12)C(O)(c1ccccc1)C1CCCCC1 (single isomer, unassigned) [Compound No. 28] | 3.98 | 14.1 | 3.5 |  |  |
| CC(C)=CCN1C[C@@H]2[C@@H](CNC(=O)C(O)(c3ccccc3)C3CCCCC3)[C@@H]2C1 (stereo partly drawn) [Compound No. 39, (1α,5α,6α)-N-[3-(3-methyl-2-butenyl)-3-azabicyclo[3.1.0]hexyl-6-(aminomethyl)yl]-2-hydroxy-2-cyclohexyl-2-phenylacetamide] | 4.37 | 16.2 | 3.7 |  |  |
| CC(C)=CCCN1C[C@@H]2[C@@H](CNC(=O)C(O)(c3ccccc3)C3CCCCC3)[C@@H]2C1 (stereo partly drawn) [Compound No. 15, (1α,5α,6α)-N-[3-(4-methyl-3-pentenyl)-3-azabicyclo[3.1.0]hexyl-6-(aminomethyl)-yl]-2-hydroxy-2-cyclohexyl-2-phenyl acetamide] | 13.5 | 257 | 19 |  |  |
| O=C(NC[C@@H]1[C@H]2CN(CCc3ccc4c(c3)CCO4)C[C@@H]12)C(O)(c1ccccc1)C1CCCCC1 (stereo partly drawn) [Compound No. 9, (1α,5α,6α)-N-[3-(2-(2,3-dihydrobenzofuran-5-yl)ethyl)-3-azabicyclo[3.1.0]hexyl-6-(aminomethyl)-yl]-2-hydroxy-2-cyclohexyl-2-phenyl acetamide] | 38.9 | 257 | 6.6 |  |  |
| O=C(NC[C@@H]1[C@H]2CN(Cc3ccccc3)C[C@@H]12)C(O)(c1ccccc1)C1CCCC1 (stereo partly drawn) [Compound No. 3, (1α,5α,6α)-N-[3-benzyl-3-azabicyclo[3.1.0]hexyl-6(aminomethyl)-yl]-2-hydroxy-2-cyclopentyl-2-phenyl acetamide] | 5.89 | 95.5 | 16 |  | 131 to 134 |

Reference: US20070004791A1, “3,6-disubstituted azabicyclo {3.1.0} hexane derivatives useful as muscarnic receptor antagonists” (priority 2002, published 2007)
